Laboratory results reported in patent publication US12391646B2, “Using adiponectin receptor agonists to treat inflammation and bone diseases in diabetes” (Trustees of Tufts College, priority 2020, dated 2025).

What was measured:
DIO mice = experiment: Systemic inflammation in DIO mice, oral gavage 14 days; type: in vivo; settings: AdipoAI 25 mg/kg; for mRNA expression of IL-6 and IL-1β in WAT, spleen, bone marrow / serum levels of IL-6 and IL-1β: oral gavage 14 days, APR 50 mg/kg
Procedure: FIG. 3 AdipoAI decreases inflammation in DIO mice (n=6). DIO mice were orally gavaged with APR (50 mg/kg) or AdipoAI (25 mg/kg) for 14 days, and control animals (WT or DIO mice) were administered with equivalent volumes of DMSO. mRNA expression levels of pro-inflammatory cytokines in (a) WAT, (b) spleen and (c) bone marrow were measured by qRT-PCR and normalized to the level of β-actin mRNA. Data are expressed as mean±SEM. (d) Serum levels of IL-6 and IL-1β were measured by ELISA. Data are expressed as mean #SEM. Representative images of H&E (e) and IHC of F4/80 staining (f) of spleen tissue in DIO mice (n=6). Red arrow indicates multinucleated giant cells (megakaryocytes). One-way ANOVA test for multiple-group comparisons, * vs. WT-vehicle group, # vs. DIO-vehicle group. */#P<0.05, significant differences between each indicated group. ns, not significant.
The Ethics Committee on the Use and Care of Animals at Tufts University approved the study protocol (Boston, MA, USA). The animals received humane care according to the criteria outlined in the Guide for the Care and Use of Laboratory Animals prepared by the National Academy of Sciences and published by the National Institutes of Health. All experiments involving animals or animal tissue are reported in compliance with the guidelines of ARRIVE and BJP (Kilkenny et al., 2010; McGrath and Lilley, 2015). Experimental protocols and design adhere to BJP guidelines (Curtis et al., 2015). Wild-type (WT, C57BL/6J, Jax #000664), DIO (Jax #380050), and APN KO (Jax #008195) mice were purchased from the Jackson Laboratory. The DIO mice were fed with a high-fat diet (containing 60% kcal from fat; Jackson Laboratory) at 6 weeks of age and later. The WT mice were fed with ordinary diet as normal chow (NC)-fed mice, and APN KO mice were maintained and fed with an NC diet as previously described (Tu et al., 2011). For the LPS-induced endotoxemia model, male C57BL/6 mice aged 8 weeks received oral gavage with APR (50 mg/kg body weight) or AdipoAI (25 mg/kg body weight) for 24 h before by LPS (20 mg/kg body weight) treatment which was administered intraperitoneally whereas control animals were treated with equivalent volumes of normal PBS. Mouse survival in each group was monitored and recorded up to 84 h. All mice were killed at 1 h for detection of activation of inflammatory genes, at 6 h for determination of inflammatory factors in serum, and at 24 h for histological evaluation. Animal data were excluded from experiments based on pre-established criteria of visible abnormal tissue structure during sample harvest or other health issues, including fighting wounds.

Raw264.7 cells = experiment: CCK-8 cytotoxicity assay, 24 hours; type: cell-based; settings: at 40 μM or lower concentrations
Procedure: (§1) FIG. 1 Characterization of anti-inflammatory properties of APR-like compounds. (a) Raw264.7 cells were pretreated with APR (20 μM) or new compounds 1 to 10 (5 μM) for 24 h followed by incubation with LPS (100 ng/mL) for an additional 6 h. IL-6 and IL-1β mRNA expression levels were evaluated by qPCR and normalized with GAPDH mRNA level. (b) Raw264.7 cells were pretreated with different doses of AdipoAI for 24 h followed by incubation with LPS (100 ng/mL) for additional 6 h to evaluate dose-dependency of AdipoAI in inhibiting IL-6 and IL-1β mRNA expression levels by qRT-PCR and normalized with GAPDH mRNA level. (c) Evaluation of cytotoxicity of APR, AdipoAI and compound 5 by CCK8 assay in Raw264.7 cells treated for 24 hours. (d) BMMs were pretreated with APR (20 μM), AdipoAI (5 μM) or compound 5 (5 μM) for 24 h followed by incubation with LPS (100 ng/ml) for additional 6 h for the measurement of IL-6 and IL-1β mRNA expression levels by qRT-PCR and normalized with GAPDH mRNA level. Data were expressed as the mean±SEM at five biological independent experiments. One-way ANOVA test for multiple-group comparisons, *P<0.05, significant differences between each indicated group.
Raw264.7 cells were seeded at 2×10^3 cells/well in 96-well plates for 16 hours and then serum-starved for 6 hours. Cells were maintained in DMEM in the presence of different concentrations of APR (AdipoGen Life Sciences, San Diego, CA, USA) and compounds for 24 hours. […] The detailed group assignment is shown in the individual figure legends.

[1] = test system: LPS-stimulated RAW 264.7 macrophages; experiment: qPCR of cytokine mRNA in LPS-stimulated RAW 264.7 macrophages; type: cell-based; settings: for expression of anti-inflammatory cytokine IL-10: LPS-induced macrophages; for IL-10 expression, longer treatments / IL-10 mRNA expression, treatment for 18 h or less: macrophages; for IL-10 expression, longer treatments: longer than 18 h; for IL-10 mRNA expression, treatment for 18 h or less: no LPS
[2] = test system: LPS-stimulated RAW 264.7 macrophages; experiment: as above; type: cell-based; settings: for expression of proinflammatory cytokines such as IL-6 and IL-1B: LPS-induced macrophages
Procedure: as §1
RAW 264.7 macrophage cell line was purchased from ATCC (Manassas, VA, USA) and maintained in DMEM (Gibco, Life Technologies, Carlsbad, CA, USA) supplemented with 10% (v.v-1) FBS (Gibco, Life Technologies) and 1% (v.v-1) penicillin/streptomycin (Gibco, Life Technologies). The cells were routinely cultured in an incubator at 37° C. in a humidified atmosphere of 5% CO2.
Total RNA of cells was extracted using Quick-RNA Miniprep Kit (ZYMO Research, Irvine, CA, USA) and total RNA from mouse tissues was prepared with TriZol reagent (Life Technologies) according to the manufacturer's instructions followed by qRT-PCR assays as described previously (L. Zhang et al., 2014). 1 μg of total RNA was used for reverse transcription using the M-MLV Reverse Transcriptase (Thermo Scientific, Waltham, MA, USA) according to the manufacturer's protocol using PowerUp SYBR Green Master Mix (Thermo Scientific) on a Bio-Rad iQ5 thermal cycler (Bio-Rad Laboratories, Hercules, CA, USA). Differences in expression were evaluated by the comparative cycle threshold method using GAPDH or β-actin as a control. The primer sequences used for the qRT-PCR experiments are listed in supplemental Table 1.
Macrophages were seeded at a density of 5×10^5 cells/well in 12-well plates. After overnight incubation, the cells were transfected for 24 h with siRNAs targeting specific genes or scrambled control siRNAs using HiPerFect Transfection Reagent (Qiagen, Hilden, Germany) according to the manufacturer's guidelines. Gene silencing efficiency was monitored by qPCR or Western blot analysis. The siRNA duplexes used in this study were chemically synthesized by Thermo Scientific.

Compound | mRNA expression of IL-6 and IL-1β in WAT, spleen, bone marrow (DIO mice) | serum levels of IL-6 and IL-1β (DIO mice) | cytotoxic effects (CCK-8) (Raw264.7 cells) | expression of anti-inflammatory cytokine IL-10 [1] | IL-10 expression, longer treatments [1] | IL-10 mRNA expression, treatment for 18 h or less [1] | expression of proinflammatory cytokines such as IL-6 and IL-1B [2] | megakaryocytes and macrophages in spleen (H&E, IHC F4/80) (DIO mice; 14 days) | TNF-α expression levels ([1]; LPS-induced Raw264.7 macrophage, BMMs or PEMs (data not shown)) | dependence of inhibition of proinflammatory cytokine mRNA on AdipoRs and APPLs (siRNA) ([2]; Raw264.7 cells transfected with siRNA) | inhibition of IL-6 and IL1-β mRNA expression ([2]; compounds at 5 μM vs APR at 20 μM, 24 h pretreatment, then LPS 100 ng/mL 6 h) | anti-inflammatory efficacy relative to APR ([2]; in macrophages, estimated) | LPS-stimulated IL-6 and IL-1β mRNA expression, dose-dependency ([2]; increasing concentrations, 24 h, then LPS 100 ng/mL 6 h)
O=C(COc1ccc(C(=O)c2ccccc2)cc1)NC1CCN(Cc2ccccc2)CC1 [AdipoRon, reference compound] | inhibited the expression levels of IL-6 and IL-1β | inhibited the expression levels of IL-6 and IL-1β | neither of the 3 small molecules mediated significant cytotoxic effects | downregulated expression of the anti-inflammatory cytokine IL-10 | decreased IL-10 expression | increased IL-10 mRNA expression | inhibited expression of proinflammatory cytokines such as IL-6 and IL-1B | – | – | – | – | – | –
COc1ccc(CN2CCC(NC(=O)COc3ccc(C(=O)c4ccc(Cl)cc4)cc3)CC2)cc1 [Compound 3] | inhibited mRNA expression of IL-6 (Il6) and IL-1β (Il1β) | reduced IL-6 and IL-1β levels in the serum | neither of the 3 small molecules mediated significant cytotoxic effects | downregulated expression of the anti-inflammatory cytokine IL-10 | decreased IL-10 expression | increased IL-10 mRNA expression | inhibited expression of proinflammatory cytokines such as IL-6 and IL-1B | decreased quantity of megakaryocytes and macrophages | did not inhibit TNF-α expression levels | prevented by AdipoR1 and APPL1 suppression, but not AdipoR2 or APPL2 | stronger inhibitory effects than APR | about 8 times | decreased LPS-stimulated IL-6 and IL-1β mRNA expression in a dose-dependent fashion
